The values that follow come from ChEMBL document CHEMBL1157522 (Bioorg Med Chem Lett, 2008).

In assay [1] the target is Coagulation factor IX (Homo sapiens) (UniProt P00740). As to the kind of experiment: Inhibition of human factor 9a.
Assay [2] concerns the target Plasminogen (Homo sapiens) (UniProt P00747). The assay can be described thus: Inhibition of human plasmin.
The target of assay [3] is Trypsin (Homo sapiens) (UniProt P07477+P07478+P35030). As to the kind of experiment: Inhibition of human trypsin. It counts as protein assay.
Assay [4] concerns the target Tissue-type plasminogen activator (Homo sapiens) (UniProt P00750). As to the kind of experiment: Inhibition of human tPA.
Assay [5] is filed under the species Homo sapiens. The assay can be described thus: Inhibition of human chymotrypsin.
Assay [6] concerns the target Coagulation factor X (Homo sapiens, UniProt P00742). The assay can be described thus: Inhibition of human factor 10a.
Assay [7] addresses Plasma kallikrein (Homo sapiens) (UniProt P03952). As to the kind of experiment: Inhibition of human plasma kallikrein. It counts as cell-free.
Assay [8] has as its target T1, Coagulation factor VII (Homo sapiens) (UniProt P08709).
T1 sequence (whole entry): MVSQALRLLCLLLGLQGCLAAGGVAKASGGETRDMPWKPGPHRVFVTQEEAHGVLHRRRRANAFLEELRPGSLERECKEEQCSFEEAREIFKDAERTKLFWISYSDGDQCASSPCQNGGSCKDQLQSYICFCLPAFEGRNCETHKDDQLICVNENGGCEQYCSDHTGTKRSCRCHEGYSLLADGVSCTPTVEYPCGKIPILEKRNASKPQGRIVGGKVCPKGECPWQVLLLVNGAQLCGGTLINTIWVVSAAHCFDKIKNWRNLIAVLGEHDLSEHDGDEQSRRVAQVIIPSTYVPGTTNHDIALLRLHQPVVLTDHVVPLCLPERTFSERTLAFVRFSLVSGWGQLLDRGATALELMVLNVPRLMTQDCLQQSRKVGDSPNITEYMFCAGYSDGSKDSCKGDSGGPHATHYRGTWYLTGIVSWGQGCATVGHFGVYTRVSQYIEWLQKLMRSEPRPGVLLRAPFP
As to the kind of experiment: Inhibition of human factor 7a.

Assay [9] has as its target Vitamin K-dependent protein C (Homo sapiens) (UniProt P04070). As to the kind of experiment: Inhibition of human activated protein C.

The structures appear in SMILES notation. Active and inactive are the calls of the source. The calls are words filed in the database; no cut-off is given here.

One may read the Ki as a measure of affinity in units of concentration, obtained from inhibition or displacement. A low value points to tighter binding.

Chain of Plasminogen (Homo sapiens) (P00747 97-580 limits assumed): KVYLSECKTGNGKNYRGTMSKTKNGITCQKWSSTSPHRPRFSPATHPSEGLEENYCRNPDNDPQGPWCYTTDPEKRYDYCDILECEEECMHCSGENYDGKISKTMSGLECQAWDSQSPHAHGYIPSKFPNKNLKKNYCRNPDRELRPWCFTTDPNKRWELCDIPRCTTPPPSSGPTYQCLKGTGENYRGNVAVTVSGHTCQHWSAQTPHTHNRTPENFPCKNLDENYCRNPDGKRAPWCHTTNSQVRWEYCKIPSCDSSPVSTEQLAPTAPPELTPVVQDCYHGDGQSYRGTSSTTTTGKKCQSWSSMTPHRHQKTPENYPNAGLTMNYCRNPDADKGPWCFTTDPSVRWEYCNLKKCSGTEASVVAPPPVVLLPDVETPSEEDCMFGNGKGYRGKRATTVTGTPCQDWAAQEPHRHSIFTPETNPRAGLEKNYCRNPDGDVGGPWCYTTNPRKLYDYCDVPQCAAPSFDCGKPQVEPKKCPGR
Chain of Plasminogen (Homo sapiens) (P00747 581-810 limits assumed): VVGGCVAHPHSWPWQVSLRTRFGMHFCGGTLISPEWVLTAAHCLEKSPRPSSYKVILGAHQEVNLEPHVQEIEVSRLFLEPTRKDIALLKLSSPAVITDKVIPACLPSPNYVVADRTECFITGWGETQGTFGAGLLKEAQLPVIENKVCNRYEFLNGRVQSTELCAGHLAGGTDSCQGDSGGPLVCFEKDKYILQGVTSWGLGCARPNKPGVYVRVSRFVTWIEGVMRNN
Chain of Coagulation factor IX (Homo sapiens) (P00740 47-191 limits assumed): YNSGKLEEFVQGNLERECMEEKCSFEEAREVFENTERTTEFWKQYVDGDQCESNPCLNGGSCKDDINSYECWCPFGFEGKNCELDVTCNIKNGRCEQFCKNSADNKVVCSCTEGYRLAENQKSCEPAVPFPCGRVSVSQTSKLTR
Chain of Coagulation factor IX (Homo sapiens) (P00740 227-461 limits assumed): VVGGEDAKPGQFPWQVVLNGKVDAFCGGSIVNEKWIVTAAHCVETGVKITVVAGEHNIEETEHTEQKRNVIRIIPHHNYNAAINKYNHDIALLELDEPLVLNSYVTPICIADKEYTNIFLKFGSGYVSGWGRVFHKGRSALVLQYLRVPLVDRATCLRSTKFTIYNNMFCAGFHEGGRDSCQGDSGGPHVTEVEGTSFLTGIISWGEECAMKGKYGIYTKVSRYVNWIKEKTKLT
Chain of Tissue-type plasminogen activator (Homo sapiens) (P00750 36-562 limits assumed): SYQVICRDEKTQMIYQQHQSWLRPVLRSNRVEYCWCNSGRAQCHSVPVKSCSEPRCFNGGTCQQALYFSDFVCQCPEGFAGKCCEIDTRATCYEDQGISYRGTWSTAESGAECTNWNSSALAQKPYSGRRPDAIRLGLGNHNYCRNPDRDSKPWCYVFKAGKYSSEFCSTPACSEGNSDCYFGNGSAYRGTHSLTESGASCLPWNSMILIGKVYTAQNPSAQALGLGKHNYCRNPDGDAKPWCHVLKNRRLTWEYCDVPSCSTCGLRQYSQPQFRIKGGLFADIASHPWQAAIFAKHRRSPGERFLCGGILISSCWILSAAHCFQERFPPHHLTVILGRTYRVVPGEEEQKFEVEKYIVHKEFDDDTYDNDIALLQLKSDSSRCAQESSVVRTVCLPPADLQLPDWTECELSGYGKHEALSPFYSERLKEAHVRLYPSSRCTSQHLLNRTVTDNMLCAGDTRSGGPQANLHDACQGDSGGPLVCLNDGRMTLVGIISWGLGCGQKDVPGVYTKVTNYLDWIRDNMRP
Chain of Plasma kallikrein (Homo sapiens) (P03952 20-390 limits assumed): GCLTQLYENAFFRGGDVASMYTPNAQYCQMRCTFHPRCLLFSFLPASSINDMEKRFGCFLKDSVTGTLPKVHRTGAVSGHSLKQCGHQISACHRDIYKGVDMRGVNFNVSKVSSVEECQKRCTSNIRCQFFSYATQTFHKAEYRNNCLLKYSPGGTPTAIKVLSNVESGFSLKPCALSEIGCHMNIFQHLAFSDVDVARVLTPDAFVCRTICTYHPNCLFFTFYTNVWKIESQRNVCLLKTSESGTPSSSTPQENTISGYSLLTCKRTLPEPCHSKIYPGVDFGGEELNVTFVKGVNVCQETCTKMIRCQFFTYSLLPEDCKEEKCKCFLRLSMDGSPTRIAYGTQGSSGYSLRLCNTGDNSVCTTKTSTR
Chain of Plasma kallikrein (Homo sapiens) (P03952 391-638 limits assumed): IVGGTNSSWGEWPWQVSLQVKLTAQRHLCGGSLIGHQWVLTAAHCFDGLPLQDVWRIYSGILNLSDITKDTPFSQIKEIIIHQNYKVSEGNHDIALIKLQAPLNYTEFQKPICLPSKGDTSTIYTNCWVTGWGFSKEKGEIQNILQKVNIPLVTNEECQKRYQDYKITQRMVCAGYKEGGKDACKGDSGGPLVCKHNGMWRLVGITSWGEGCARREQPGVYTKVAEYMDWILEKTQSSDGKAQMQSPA
Chain of Vitamin K-dependent protein C (Homo sapiens) (P04070 43-197 limits assumed): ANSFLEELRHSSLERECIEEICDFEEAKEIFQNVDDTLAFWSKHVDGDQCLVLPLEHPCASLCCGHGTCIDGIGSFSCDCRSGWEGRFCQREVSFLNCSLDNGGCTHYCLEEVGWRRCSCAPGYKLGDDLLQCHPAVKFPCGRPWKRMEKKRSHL
Chain of Vitamin K-dependent protein C (Homo sapiens) (P04070 212-461 limits assumed): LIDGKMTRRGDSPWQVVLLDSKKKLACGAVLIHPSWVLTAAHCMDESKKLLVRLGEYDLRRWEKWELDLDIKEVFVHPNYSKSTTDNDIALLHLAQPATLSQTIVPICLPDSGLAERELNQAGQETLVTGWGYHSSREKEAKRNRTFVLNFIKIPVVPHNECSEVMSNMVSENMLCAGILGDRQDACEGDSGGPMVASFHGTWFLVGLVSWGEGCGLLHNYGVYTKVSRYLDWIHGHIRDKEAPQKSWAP
Chain of Coagulation factor X (P00742 41-179 limits assumed): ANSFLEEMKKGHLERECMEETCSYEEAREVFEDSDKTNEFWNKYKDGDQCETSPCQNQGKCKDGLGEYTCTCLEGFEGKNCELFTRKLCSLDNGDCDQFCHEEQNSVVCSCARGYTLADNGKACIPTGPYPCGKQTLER
Chain of Coagulation factor X (P00742 235-488 limits assumed): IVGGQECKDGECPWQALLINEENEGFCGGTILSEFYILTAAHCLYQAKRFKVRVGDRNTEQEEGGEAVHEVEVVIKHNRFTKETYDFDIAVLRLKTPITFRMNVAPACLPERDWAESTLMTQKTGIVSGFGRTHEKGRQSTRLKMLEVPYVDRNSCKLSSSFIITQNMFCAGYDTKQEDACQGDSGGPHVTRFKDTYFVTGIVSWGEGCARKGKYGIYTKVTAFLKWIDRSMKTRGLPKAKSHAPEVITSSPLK

Regarding `CCNC(=O)N(C)CC1(c2ccc(N3CCc4c(C(F)(F)F)nn(-c5ccc(OC)cc5)c4C3=O)cc2)CC1`, the result in [1], in [2], in assay [3], in [4], in assay [5] and in [7] was inactive. Moreover, the outcome in assay [8] and in assay [9] was inactive. The same compound had a Ki in [6] of 0.14 nM.
Take `COc1ccc(-n2nc(C(F)(F)F)c3c2C(=O)N(c2ccc(C4(C(=O)N5CCCC5)CC4)cc2)CC3)cc1`: the outcome in assay [1], in assay [2], in assay [3], in [4], in assay [5] and in assay [7] was inactive. For the same compound, the outcome in [8] and in assay [9] was inactive. Also, the Ki in [6] stood at 169 nM.
Consider `COc1ccc(-n2nc(C(F)(F)F)c3c2C(=O)N(c2ccc(C4(CNC5CCCC5)CC4)cc2)CC3)cc1`, for which the outcome in assay [1], in assay [2], in assay [3], in assay [4], in assay [5] and in assay [7] was inactive. In addition, the outcome in [8] and in assay [9] was inactive. In assay [6], this compound showed a Ki of 0.12 nM.
`COc1ccc(-n2nc(C(F)(F)F)c3c2C(=O)N(c2ccc(C4(CN(C)C(C)=O)CC4)cc2)CC3)cc1`: the result in [1], in [2], in assay [3], in assay [4], in assay [5] and in [7] was inactive. Also, the result in assay [8] and in [9] was inactive. In assay [6], the Ki is 0.055 nM.
Turning to `COc1ccc(-n2nc(C(F)(F)F)c3c2C(=O)N(c2ccc(C4(C(=O)NC5CCCC5)CC4)cc2)CC3)cc1`, the outcome in assay [1], in assay [2], in assay [3], in [4], in [5] and in assay [7] was inactive. In addition, the outcome in [8] and in assay [9] was inactive. In [6], this compound yielded a Ki of 30 nM.
With `COc1ccc(-n2nc(C(F)(F)F)c3c2C(=O)N(c2ccc(C4(CNC(C)C)CC4)cc2)CC3)cc1`, the result in [1], in assay [2], in assay [3], in [4], in assay [5] and in [7] was inactive. Moreover, the outcome in [8] and in assay [9] was inactive. In [6], this compound gave a Ki of 0.042 nM.
Turning to `CCN(CC)CC1(c2ccc(N3CCc4c(C(F)(F)F)nn(-c5ccc(OC)cc5)c4C3=O)cc2)CC1`, the result in assay [1], in assay [2], in [3], in assay [4], in assay [5] and in assay [7] was inactive. The outcome in assay [8] and in [9] was inactive. Also, in assay [6], the Ki is under 0.02 nM.
